EPA's ToxValDB 9.5 (doi:10.2903/j.efsa.2013.3181)
In brackets after ≈: the same amount, converted by molar mass.

What was measured:
Aphidius rhopalosiphi = experiment: LR50; higher = less toxic; details: acute; duration: 48 hours; mortality
Typhlodromus pyri = experiment: LR50; higher = less toxic; details: chronic/long-term; duration: 7 days; mortality
Apis mellifera = details: acute; duration: 48 hours; oral; unspecified; mortality
Lepomis macrochirus = details: acute; duration: 96 hours; mortality
Canidae = details: chronic; duration: 1 years; oral; Dog Other; clinical signs
Bibionidae = details: chronic/long-term; duration: 28 days; no effects
Pimephales promelas = details: chronic/long-term; duration: 28 days; body weight
Daphnia magna = details: chronic/long-term; duration: 21 days; reproduction
Colinus virginianus = details: for LD50: acute, oral, mortality
Anas platyrhynchos = details: reproductive
Mus musculus = details: acute; oral; F; mortality

With CC(C)C1CCC(Cc2ccc(Cl)cc2)C1(O)Cn1cncn1 (stereo not drawn) [Ipconazole] the LR50 (Aphidius rhopalosiphi) was 35.1 g/ha, the LR50 (Typhlodromus pyri) was 17.4 g/ha and the LC50 (Tagia sp.; acute, duration: 14 days, mortality) was 597 mg/kg. For the same compound, the NOEC (Tagia sp.; chronic/long-term, duration: 8 weeks, reproduction) was 0.78 mg/kg, the LD50 (Apis mellifera) was greater than 100 µg/piece and the LC50 (Lepomis macrochirus) was 1.3 µg/mL (≈ 3.89 µM). For the same compound, the NOAEL (Canidae) was 1.5 mg/kg-day, the NOEC (Bibionidae) was 3.52 mg/L and the NOEC (Pimephales promelas) was 0.44 µg/L. It also gave an NOEC (Daphnia magna) of 10.9 µg/L, an LD50 (Colinus virginianus; diet) greater than 300 mg/kg-day and an LD50 (Colinus virginianus) of 962 mg/kg. For the same compound, the NOEL (Colinus virginianus; reproduction developmental) was 4.3 mg/kg-day, the NOEL (Anas platyrhynchos) was 27.1 mg/kg-day and the LD50 (Rattus norvegicus; acute, oral, F, mortality) was greater than 2000 mg/kg. The NOAEL (Rattus norvegicus; developmental, development) was 3 mg/kg-day, the NOAEL (Rattus norvegicus; reproduction developmental, body weight) was 8 mg/kg-day and the LD50 (Mus musculus) was 468 mg/kg.
